Source: paper PMC8891108, “Development and characterization of anti-fibrotic natural compound similars with improved effectivity” (Basic Research in Cardiology, 2022)
pEC50: −log10 of the molar value.

How the values were obtained:
Assay type in all cases: cell-based
[1] = test system: human cardiac fibroblasts (HCF); experiment: BrdU incorporation, HCF proliferation (first screen); settings: Homo sapiens, Cardiac fibroblast, 24 h, read-out: Effective conc. (BrdU), EC50 by BrdU assay
Method: 96-well plates (TPP) were coated with 0.1% gelatine and seeded with 7500 HCFs/well. After 72 h, medium was exchanged with serial dilutions of compounds in FGM-3 + 1.6% DMSO + 1% 5-bromo-2′-deoxyuridine (BrdU, Roche, #11647229001), prepared in additional plates. After 24 h, cells were washed twice with DPBS (Gibco, #14190144) before incubation with anti-BrdU:POD (Roche, #11647229001) for 60 min (RT). Readout was performed by measurement of absorbance at 370 nm + 490 nm in a Synergy HT (BioTek) microplate reader. […] As validation, HCF were seeded as before, but treated with serial dilutions of compounds after 24 h. […] After 60 min of incubation (37 °C, in the dark), absorbance at 450 nm + 630 nm was measured maintaining 37 °C and analysed as described before.
To assess screening quality, quality acceptance criteria Z′ (Z prime), SW (signal window), S:B (signal-to-background), S:N (signal-to-noise) were determined following. Average Z′ ≥ 0.5 and SW ≥ 2 were required to accept the screening overall, whereas single plates were rejected from analysis if Z′ < 0.3 or SW < 1.

[2] = test system: human cardiac fibroblasts (HCF); experiment: Caspase-3/7 activation (Caspase-Glo) in HCF; settings: within the tested concentration range
Method: As contrast to activity, toxicity of top six similars and lead compounds was determined by a multiplex measurement of caspase activation and membrane integrity (using LDH release and inclusion of the CellTox Green dye). Briefly, HCFs were seeded as before. After 24 h, cells were treated with serial dilutions of compounds with additional 0.1% CellTox™ Green dye (Promega, #G8741). After 24 h incubation, 5 µL medium was removed from each well, mixed with 95 µL LDH Storage buffer (Promega, #J2380) and frozen for later analysis. 95 µL Caspase-Glo® 3/7 reagent (Promega, #G8090) was added to each well, and after 60 min of incubation luminescence was measured in a Synergy HT. Afterwards, micrographs of brightfield and green fluorescence were taken using a Cytation 1 (BioTek) automated microscope maintaining 37 °C and 5% CO2. Wells were manually checked for co-localization of fluorescence signal with cells in brightfield. On the next day, supernatants in LDH Storage buffer were thawed, and 50 µL was mixed with 50 µL of LDH Detection reagent and luminescence was measured after 60 min of incubation. Dose–response curves were determined as described before. To determine toxicity of the top 3 anti-fibrotic similars in hiPS-CM, 20,000 cells/well were seeded, treated and analysed as above, devoid the fluorescent dye steps.

[3] = test system: human cardiac fibroblasts (HCF); experiment: In vitro migration (scratch) assay of HCF; settings: 10 × EC50
Method: To assess migrative capabilities of HCF, cells were stained with 1:1000 1,1′-Dioctadecyl-3,3,3′,3′-Tetramethylindotricarbocyanine Iodide (DIR′) dye in FGM-3 for 20 min at 37 °C. Cells were washed with DPBS and seeded into 0.1% gelatine-coated 96-well plates at 30,000 cells per well. […] After 17 h and 24 h, plates were imaged again. Rate of migration was determined using the migrative index (MI).

[4] = test system: human cardiac fibroblasts (HCF); experiment: TaqMan Array Human MicroRNA Cards, miRNA deregulation in HCF
Method: PCR amplification of array cards was performed as instructed. After quality control of all real-time qPCRs, cT values were exported and all runs were merged into a single excel file. Recommended baseline correction using relative thresholds to correct for varying reconstitution rates of different Taqman probes was not performed. Low-expressed miRNAs with cT > 32 in more than 1 replicate per treatment were excluded from analysis, before samples were normalized to column mean. Multiple unpaired t tests were performed using GraphPad Prism, deregulations were accepted as discoveries if FDR ≤ 1% (using BKY adjustment). As miRNA identifiers were based on miRbase v14, we converted them to the latest v22 for further analysis using miRBaseConverter. 747 sequences could be converted correctly, while the remaining miRNAs were removed from miRbase due to incorrect annotation (e.g. the sequences of hsa-miR-886-3p and hsa-miR-886-5p are part of VTRNA2-1 [44]) or no evidence of human expression.

[5] = mean of DMSO minus mean of treatment

## C[C@]12CC[C@H](O)C[C@H]1CC[C@@H]1[C@@H]2CC[C@]2(C)[C@@H](c3ccc(=O)oc3)CC[C@]12O [Bufalin, bufalin]
[1]
  pEC50: 8.68
[2]
  induction of Caspase-3/7: dose-dependent induction of Caspase-3/7
[3]
  HCF migration: nearly complete lack of migration within the first half hour
[4]; cT normalized to column mean
  Mean of treatment, hsa-miR-125a-5p-002198: -1.094
  Mean of treatment, hsa-miR-132-000457: -3.644
  Mean of treatment, hsa-miR-146a-000468: -6.478
  Mean of treatment, hsa-miR-886-3p-002194: -0.5419
[4]; [5]
  Difference / ΔCT, hsa-miR-125a-5p-002198: -1.48
  Difference / ΔCT, hsa-miR-132-000457: 1.1
  Difference / ΔCT, hsa-miR-146a-000468: -1.167
  Difference / ΔCT, hsa-miR-886-3p-002194: -2.302
